# Laboratory results as given in patent US9738634B2, “Heterocyclic amide compound and herbicide” (SYNGENTA PARTICIPATIONS AG, priority 2013, dated 2017).
# What was measured:
# Format in all cases: in vivo
# [1] = system: chickweed; test: Test Example 3: weedkilling efficacy through soil treatment; N: chickweed; details: treatment dosage 315 g/ha
# Procedure, shortened: (§1)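 Crop and weed responses were judged three weeks after a uniform surface spray of the water-diluted emulsion at the given g/ha rate. Seeds sat beneath about 1.5 cm of sterilized diluvial soil, and boxes stood in a greenhouse at 25 to 30° C.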
# [2] = system: soybean; test: Test Example 3: soil treatment, effect on crop; d: soybean; details: treatment dosage 315 g/ha
# Procedure, shortened: as §1
# [3] = system: directly sown rice; test: Test Example 3: soil treatment, effect on crop; b: directly sown rice; details: treatment dosage 315 g/ha
# Procedure, shortened: as §1
# [4] = system: Indian mallow; test: Test Example 4: weedkilling efficacy by foliar treatment; K: Indian mallow; details: treatment dosage 315 g/ha
# Procedure, shortened: (§2)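 Seeds are spot-sown into sterilized diluvial soil and covered with about 1.5 cm of soil. After 14 days' greenhouse growth at 25 to 30° C, plants are sprayed on stems and leaves with diluted emulsion at the stated g/ha rate, then scored at 3 weeks.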
# [5] = system: catchweed; test: Test Example 4: weedkilling efficacy by foliar treatment; O: catchweed; details: treatment dosage 315 g/ha
# Procedure, shortened: as §2
# [6] = system: green foxtail; test: Test Example 4: weedkilling efficacy by foliar treatment; E: green foxtail; details: treatment dosage 315 g/ha
# Procedure, shortened: as §2
# [7] = system: crabgrass; test: Test Example 4: weedkilling efficacy by foliar treatment; D: crabgrass; details: treatment dosage 315 g/ha
# Procedure, shortened: as §2
# [8] = system: Indian mallow; test: Test Example 3: weedkilling efficacy through soil treatment; K: Indian mallow; details: treatment dosage 315 g/ha
# Procedure, shortened: as §1
# [9] = system: catchweed; test: Test Example 3: weedkilling efficacy through soil treatment; O: catchweed; details: treatment dosage 315 g/ha
# Procedure, shortened: as §1
# [10] = system: fig-leafed goosefoot; test: Test Example 4: weedkilling efficacy by foliar treatment; M: fig-leafed goosefoot; details: treatment dosage 315 g/ha
# Procedure, shortened: as §2
# [11] = system: crabgrass; test: Test Example 3: weedkilling efficacy through soil treatment; D: crabgrass; details: treatment dosage 315 g/ha
# Procedure, shortened: as §1
# [12] = system: chickweed; test: Test Example 4: weedkilling efficacy by foliar treatment; N: chickweed; details: treatment dosage 315 g/ha
# Procedure, shortened: as §2
# [13] = system: wheat; test: Test Example 3: soil treatment, effect on crop; e: wheat; details: treatment dosage 315 g/ha
# Procedure, shortened: as §1
# [14] = system: green foxtail; test: Test Example 3: weedkilling efficacy through soil treatment; E: green foxtail; details: treatment dosage 315 g/ha
# Procedure, shortened: as §1
# [15] = system: directly sown rice; test: Test Example 4: foliar treatment, effect on crop; b: directly sown rice; details: treatment dosage 315 g/ha
# Procedure, shortened: as §2
# [16] = system: wild oat; test: Test Example 3: weedkilling efficacy through soil treatment; G: wild oat; details: treatment dosage 315 g/ha
# Procedure, shortened: as §1
# [17] = system: corn; test: Test Example 4: foliar treatment, effect on crop; c: corn; details: treatment dosage 315 g/ha
# Procedure, shortened: as §2
# [18] = system: redroot pigweed; test: Test Example 4: weedkilling efficacy by foliar treatment; L: redroot pigweed; details: treatment dosage 315 g/ha
# Procedure, shortened: as §2
# [19] = system: Italian ryegrass; test: Test Example 4: weedkilling efficacy by foliar treatment; I: Italian ryegrass; details: treatment dosage 315 g/ha
# Procedure, shortened: as §2
# [20] = system: corn; test: Test Example 3: soil treatment, effect on crop; c: corn; details: treatment dosage 315 g/ha
# Procedure, shortened: as §1
# [21] = system: bulrush; test: Test Example 1: weedkilling efficacy, preemergent weed treatment in the submerged state; B: bulrush; details: treatment dosage 252 g/ha
# Procedure, shortened: (§3)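 Alluvial soil in Wagner pots flooded to 4 cm; barnyard grass, bulrush and oval-leafed pondweed seeds sown, then 2.5-leaf rice seedlings transplanted. Same day, emulsified compound diluted in water to set g/ha dosages and applied to water surface; greenhouse 25–30 °C, effect scored by criteria after 3 weeks.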
# [22] = system: fig-leafed goosefoot; test: Test Example 3: weedkilling efficacy through soil treatment; M: fig-leafed goosefoot; details: treatment dosage 315 g/ha
# Procedure, shortened: as §1
# [23] = system: oval-leafed pondweed; test: Test Example 2: weedkilling efficacy, growth period weed treatment in the submerged state; C: oval-leafed pondweed; details: treatment dosage 252 g/ha
# Procedure, shortened: (§4)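 First, alluvial soil in pots is flooded to 4 cm and mixed seed is sown. Next, plants grow in a greenhouse at 25 to 30° C until the 1-2 leaf stage. Then diluted emulsion is applied onto the water surface at the given g/ha rate, and injury is assessed after 3 weeks.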
# [24] = system: birds-eye speedwell; test: Test Example 3: weedkilling efficacy through soil treatment; p: birds-eye speedwell; details: treatment dosage 315 g/ha
# Procedure, shortened: as §1
# [25] = system: beet; test: Test Example 3: soil treatment, effect on crop; f: beet; details: treatment dosage 315 g/ha
# Procedure, shortened: as §1
# [26] = system: barnyard grass; test: Test Example 2: weedkilling efficacy, growth period weed treatment in the submerged state; A: barnyard grass; details: treatment dosage 252 g/ha
# Procedure, shortened: as §4
# [27] = system: redroot pigweed; test: Test Example 3: weedkilling efficacy through soil treatment; L: redroot pigweed; details: treatment dosage 315 g/ha
# Procedure, shortened: as §1
# [28] = system: soybean; test: Test Example 4: foliar treatment, effect on crop; d: soybean; details: treatment dosage 315 g/ha
# Procedure, shortened: as §2
# [29] = system: barnyard grass; test: Test Example 1: weedkilling efficacy, preemergent weed treatment in the submerged state; A: barnyard grass; details: treatment dosage 252 g/ha
# Procedure, shortened: as §3
# [30] = system: transplanted rice; test: Test Example 1: preemergent weed treatment in the submerged state, effect on crop; a: transplanted rice; details: treatment dosage 252 g/ha
# Procedure, shortened: as §3
# [31] = system: bulrush; test: Test Example 2: weedkilling efficacy, growth period weed treatment in the submerged state; B: bulrush; details: treatment dosage 252 g/ha
# Procedure, shortened: as §4
# [32] = system: beet; test: Test Example 4: foliar treatment, effect on crop; f: beet; details: treatment dosage 315 g/ha
# Procedure, shortened: as §2
# [33] = system: black-grass; test: Test Example 3: weedkilling efficacy through soil treatment; H: black-grass; details: treatment dosage 315 g/ha
# Procedure, shortened: as §1
# [34] = system: black-grass; test: Test Example 4: weedkilling efficacy by foliar treatment; H: black-grass; details: treatment dosage 315 g/ha
# Procedure, shortened: as §2
# [35] = system: oval-leafed pondweed; test: Test Example 1: weedkilling efficacy, preemergent weed treatment in the submerged state; C: oval-leafed pondweed; details: treatment dosage 252 g/ha
# Procedure, shortened: as §3
# [36] = system: wheat; test: Test Example 4: foliar treatment, effect on crop; e: wheat; details: treatment dosage 315 g/ha
# Procedure, shortened: as §2
# [37] = system: wild oat; test: Test Example 4: weedkilling efficacy by foliar treatment; G: wild oat; details: treatment dosage 315 g/ha
# Method: Testing of Weedkilling Efficacy by Foliar Treatment
# Sterilized diluvial soil was introduced into 21 cm long, 13 cm wide, 7 cm deep plastic boxes, and seeds of crabgrass, green foxtail, barnyard grass, wild oat, black-grass, Italian ryegrass, common wind-grass, Indian mallow, redroot pigweed, fig-leafed goosefoot, chickweed, catchweed, birds-eye speedwell, corn, soybean, rice, wheat, beet and rapeseed were each spot-sown, and covered with about 1.5 cm of soil, then the plants were grown in a greenhouse at 25 to 30° C.
# After they had grown for 14 days, emulsions of compounds of the present invention prepared according to compounding example 2 were diluted with water to give the specified dosages, and applied uniformly onto the stem and leaf parts with a small sprayer. 3 weeks after the pesticide treatment the effect on each type of plant was investigated on the basis of the assessment criteria of test example 1.
# A: barnyard grass, B: bulrush, C: oval-leafed pondweed, D: crabgrass, E: green foxtail, F: barnyard grass, G: wild oat, H: black-grass, I: Italian ryegrass, J: common wind-grass, K: Indian mallow, L: redroot pigweed, M: fig-leafed goosefoot, N: chickweed, O: catchweed, p: birds-eye speedwell, a: transplanted rice, b: directly sown rice, c: corn, d: soybean, e: wheat, f: beet, g: rapeseed
# Further, pesticide dosage (g/ha) indicates the concentration regulated such that treatment was with only the stated number of grams (g), when calculated per hectare (ha).
# [38] = system: Italian ryegrass; test: Test Example 3: weedkilling efficacy through soil treatment; I: Italian ryegrass; details: treatment dosage 315 g/ha
# Procedure, shortened: as §1
smiles,measurement,setting,value
CC1=C(c2ccccc2)C(=O)N(C(C)(C)C(=O)Nc2cc(C(F)(F)F)ccn2)CO1 [B-2-57],N (chickweed) weedkilling efficacy grade,[1],"4 (weed kill ratio 70% or more, less than 90%)"
same,d (soybean) effect on crop grade,[2],"4 (weed kill ratio 70% or more, less than 90%)"
same,b (directly sown rice) effect on crop grade,[3],"5 (weed kill ratio 90% or more, (practically complete withering))"
same,K (Indian mallow) weedkilling efficacy grade,[4],"5 (weed kill ratio 90% or more, (practically complete withering))"
same,O (catchweed) weedkilling efficacy grade,[5],"5 (weed kill ratio 90% or more, (practically complete withering))"
same,E (green foxtail) weedkilling efficacy grade,[6],"5 (weed kill ratio 90% or more, (practically complete withering))"
same,D (crabgrass) weedkilling efficacy grade,[7],"5 (weed kill ratio 90% or more, (practically complete withering))"
same,K (Indian mallow) weedkilling efficacy grade,[8],"5 (weed kill ratio 90% or more, (practically complete withering))"
same,O (catchweed) weedkilling efficacy grade,[9],"5 (weed kill ratio 90% or more, (practically complete withering))"
same,M (fig-leafed goosefoot) weedkilling efficacy grade,[10],"3 (weed kill ratio 40% or more, less than 70%)"
same,D (crabgrass) weedkilling efficacy grade,[11],"5 (weed kill ratio 90% or more, (practically complete withering))"
same,N (chickweed) weedkilling efficacy grade,[12],"3 (weed kill ratio 40% or more, less than 70%)"
same,e (wheat) effect on crop grade,[13],0 (weed kill ratio 5% or less (practically no effect))
same,E (green foxtail) weedkilling efficacy grade,[14],"5 (weed kill ratio 90% or more, (practically complete withering))"
same,b (directly sown rice) effect on crop grade,[15],"5 (weed kill ratio 90% or more, (practically complete withering))"
same,G (wild oat) weedkilling efficacy grade,[16],"5 (weed kill ratio 90% or more, (practically complete withering))"
same,c (corn) effect on crop grade,[17],"5 (weed kill ratio 90% or more, (practically complete withering))"
same,L (redroot pigweed) weedkilling efficacy grade,[18],"5 (weed kill ratio 90% or more, (practically complete withering))"
same,I (Italian ryegrass) weedkilling efficacy grade,[19],"5 (weed kill ratio 90% or more, (practically complete withering))"
same,c (corn) effect on crop grade,[20],"4 (weed kill ratio 70% or more, less than 90%)"
same,B (bulrush) weedkilling efficacy grade,[21],"5 (weed kill ratio 90% or more, (practically complete withering))"
same,M (fig-leafed goosefoot) weedkilling efficacy grade,[22],"4 (weed kill ratio 70% or more, less than 90%)"
same,C (oval-leafed pondweed) weedkilling efficacy grade,[23],"5 (weed kill ratio 90% or more, (practically complete withering))"
same,P (birds-eye speedwell) weedkilling efficacy grade,[24],"5 (weed kill ratio 90% or more, (practically complete withering))"
same,f (beet) effect on crop grade,[25],"3 (weed kill ratio 40% or more, less than 70%)"
same,A (barnyard grass) weedkilling efficacy grade,[26],"5 (weed kill ratio 90% or more, (practically complete withering))"
same,L (redroot pigweed) weedkilling efficacy grade,[27],"5 (weed kill ratio 90% or more, (practically complete withering))"
same,d (soybean) effect on crop grade,[28],"4 (weed kill ratio 70% or more, less than 90%)"
same,A (barnyard grass) weedkilling efficacy grade,[29],"5 (weed kill ratio 90% or more, (practically complete withering))"
same,a (transplanted rice) effect on crop grade,[30],"4 (weed kill ratio 70% or more, less than 90%)"
same,B (bulrush) weedkilling efficacy grade,[31],"5 (weed kill ratio 90% or more, (practically complete withering))"
same,f (beet) effect on crop grade,[32],"3 (weed kill ratio 40% or more, less than 70%)"
same,H (black-grass) weedkilling efficacy grade,[33],"5 (weed kill ratio 90% or more, (practically complete withering))"
same,H (black-grass) weedkilling efficacy grade,[34],"5 (weed kill ratio 90% or more, (practically complete withering))"
same,C (oval-leafed pondweed) weedkilling efficacy grade,[35],"5 (weed kill ratio 90% or more, (practically complete withering))"
same,e (wheat) effect on crop grade,[36],"1 (weed kill ratio 5% or more, less than 20%)"
same,G (wild oat) weedkilling efficacy grade,[37],"5 (weed kill ratio 90% or more, (practically complete withering))"
same,I (Italian ryegrass) weedkilling efficacy grade,[38],"5 (weed kill ratio 90% or more, (practically complete withering))"
